Reference: patent publication US20240376094A2, “SELECTIVE BCL-XL PROTAC COMPOUNDS AND METHODS OF USE” (Les Laboratoires Servier, priority 2021, published 2024)

Experiments:
Type in all cases: cell-based
Bcl-xL = biological target: T1, Bcl-xL (Homo sapiens, UniProt Q07817); test: HCT116 Bcl-xL degradation, capillary-based immunoassay (WES); conditions: for remaining activity at 0.01 µM / remaining activity at 0.1 µM: HCT-116, 24 h, % of untreated cells; for remaining activity at 0.01 µM: HCT116, 10 nM; for remaining activity at 0.1 µM: HCT116, 100 nM
T1 construct: Measured levels of Bcl-xL protein of HCT116 cells treated with the tested compounds; host or cells: HCT116
In short: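 Bcl-xL protein level by capillary WES immunoassay in HCT116 lysates, as % of untreated after cofilin normalization. Compound exposure was 24 h at 10 and 100 nM and/or a 9-point series, in quadruplicate. Four-parameter fitting gave the DC50.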

MOLT-4 cells [1] = test: MOLT-4 cell viability, MTT assay; conditions: Homo sapiens, MOLT-4, 48 h
In short: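 MOLT-4 cells in RPMI 1640 with 10% FBS were exposed to compounds for 48 h at 9 concentrations (3.16-fold dilutions, triplicates). After 4 h with MTT and overnight SDS/HCl solubilisation, absorbance was read at 540 nm. IC50 came from four-parameter fits versus control, as the mean of ≥2 independent experiments.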

MOLT-4 cells [2] = test: MOLT-4 cell viability, CTG assay; conditions: MOLT-4, 48 h
In short: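 Viability read as total ATP luminescence (CTG) after 48 h compound treatment, 11 points at 5-fold spacing in triplicate, cells in RPMI 1640/10% FBS. IC50 is the concentration halving signal relative to control, four-parameter fit, averaged over at least 2 experiments.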

COR-L105 = test: CellTiter-Glo proliferation assay, COR-L105; conditions: Homo sapiens, COR-L105, 120 h, COR-L105, 5 days; for Emax: read-out: COR-L105 Span (max)
In short: (§1)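 Both lines grown in RPMI-1640 + 10% FBS. COR-L105 plated flat at 1,000 cells/well overnight; NCI-H1650 grown as spheroids, 3,000 cells/well, 72 h. Compounds at 0.508 nM-10 μM final for 5 days, 37° C. ATP read by CellTiter-Glo (3D version for spheroids); IC50 from variable-slope fit normalized to untreated cells.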

NCI-H1650 = test: CellTiter-Glo 3D proliferation assay, NCI-H1650 spheroids; parameters: key to NCI-H1650 Span (Amax): —: constructs were tested and inactive; conditions: 5 days; for IC50 / Emax: Homo sapiens, NCI-H1650, 120 h; for Emax: read-out: NCI-H1650 Span (Amax)
In short: as §1

endogenous BCL-xL = biological target: T2, endogenous BCL-xL (Homo sapiens, UniProt Q07817); test: Degradation of endogenous BCL-xL in COR-L105 (ProteinSimple Jess); conditions: COR-L105, 24 h, COR-L105, dose 300 nM, read-out: % BCL-xL vs. Untreated, COR-L105
T2 construct: endogenous in cells; host or cells: COR-L105 (ECACC No. 92031918); NCI-H1650 (ATCC No. CRL-5883)
Protocol: The BCL-xL degrader low molecular weight compounds were tested against two endogenous cancer cell lines: • COR-L105: ECACC No. 92031918 cultured in RPMI-1640+10% FBS • NCI-H1650: (ATCC No. CRL-5883 cultured in RPMI-1640+10% FBS
The ability of the BCL-xL degrader low molecular weight compounds to degrade endogenous BCL-xL was assessed using the ProteinSimple 2-40 kDa Jess Separation Module.
Cell lines were cultured in media that is optimal for their growth at 5% CO2, 37° C. in a tissue culture incubator. Prior to seeding for the degradation assay, the cells were split at least 2 days before the assay to ensure optimal growth density. On the day of seeding, adherent cells were lifted off tissue culture flasks using 0.25% trypsin. Cell viability and cell density were determined using a cell counter (Vi-Cell XR Cell Viability Analyzer, Beckman Coulter). Cells with higher than 85% viability were seeded for the assay.
The COR-L105 and the NCI-H1650 cell line were seeded in 6-well clear TC-treated multiple well plates (Costar® cat. #3516). Cells were seeded at a density of 2,000,000 cells per well in 2.5 mL of standard growth media. Plates were incubated at 5% CO2, 37° C. overnight in a tissue culture incubator. On the day of dosing, BCL-xL degrader low molecular weight compounds and a BCL-xL inhibitor control were prepared at 6× in standard growth media. The prepared drug treatments were then added to the cells resulting in a final concentration of 100-300 nM and a final volume of 3.0 mL per well. A control well of untreated cells was also included in the study. Each drug concentration was tested in singlet. Plates were incubated at 5% CO2, 37° C. for 24 hours in a tissue culture incubator.
After 24 hours, the adherent cells were lifted off tissue culture plates using 0.25% trypsin. Standard growth media was added to quench the trypsin and centrifuged for 5 minutes at 1500 rpm. Cell pellets were washed once with cold PBS and centrifuged for 5 minutes at 1500 rpm. Cells were then washed with 1 mL cold PBS and transferred to a 1.5 mL eppendorf tube. Cells were centrifuged for 10 minutes at ≥10,000 g at 4° C. in a benchtop mini-centrifuge. The entire supernatant was discarded and cells were resuspended thoroughly in 50 μL of RIPA lysis buffer, generated by the manufacturer's protocol (ProteinSimple, Cat. #CBS401: Lysis Kit—RIPA Buffer for Charge Assays). Lysates were incubated on ice for 30 minutes. Following incubation, lysates were spun in a benchtop mini-centrifuge for 15 minutes at full speed at 4° C. Supernatant was carefully transferred to a new eppendorf tube for downstream analysis.
Protein was quantified using a Pierce™ BCA Protein Assay Kit (ThermoFisher, cat #23225) following the manufacturer's instructions. A standard curve was prepared by adding 25 μL of each concentration of reference samples from a Pierce™ Bovine Serum Albumin Standard Pre-Diluted Set (ThermoFisher, cat #23208). Each reference sample was run in duplicate. Testing samples were prepared by diluting cell lysates 1:5 in UltraPure™ DNase/RNase-Free Distilled Water and tested in duplicates of 25 μL each. The BCA working reagent was prepared by addition of 50 parts of BCA Reagent A with 1 part of BCA Reagent B. For each testing well, 200 μL of BCA working reagent was added. The plate was incubated at 37° C. for 30 minutes. A SpectraMax M Series Multi-Mode Microplate Reader was used to measure the absorbance at 562 nm. A standard curve generated by the Pierce™ Bovine Serum Albumin Standard Pre-Diluted Set was used to normalize and calculate the BCA concentration of cell lysates. Only values that fell within the range of the standard curve were accepted for quantification.
The ProteinSimple 2-40 kDa Jess Separation Module was used to detect BCL-xL degradation in treated versus untreated lysates following the manufacturer's instructions (25-Capillary Cartridge, 8 pack, 2-40 kDa, cat #SM W012). […]

T1 sequence (Q07817 whole entry): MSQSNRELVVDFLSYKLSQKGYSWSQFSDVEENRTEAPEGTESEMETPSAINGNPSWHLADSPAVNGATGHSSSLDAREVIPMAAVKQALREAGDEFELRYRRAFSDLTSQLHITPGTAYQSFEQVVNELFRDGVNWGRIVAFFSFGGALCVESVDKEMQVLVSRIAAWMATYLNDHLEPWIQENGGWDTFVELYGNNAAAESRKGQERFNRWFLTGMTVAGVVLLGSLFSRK
T2 sequence (Q07817 whole entry): as above

SMILES	DC50 (Bcl-xL; HCT116, 24 h, 9-point serial dilution)	remaining activity at 0.01 µM (Bcl-xL)	remaining activity at 0.1 µM (Bcl-xL)	IC50 (MOLT-4 cells [1])	IC50 (MOLT-4 cells [2])	IC50 (NCI-H1650)	remaining activity at 0.3 µM (endogenous BCL-xL)	IC50 (COR-L105)	Emax (COR-L105)	Emax (NCI-H1650)	NCI-H1650 Span (Amax) (NCI-H1650)
Cc1c(Nc2nc3ccccc3s2)nnc2c1CCCN2c1nc(C(=O)O)c(CCCOc2ccc(C#CCN3CCN(C(=O)CCCC(=O)NCCOCCNC(=O)COc4cccc5c4C(=O)N(C4CCC(=O)NC4=O)C5=O)CC3)cc2F)s1 (stereo not shown) [Example 26, 2-[3-(1,3-benzothiazol-2-ylamino)-4-methyl-6,7-dihydro-5H-pyrido[2,3-c]pyridazin-8-yl]-5-[3-[4-[3-[4-[5-[2-[2-[[2-[2-(2,6-dioxo-3-piperidyl)-1,3-dioxo-isoindolin-4-yl]oxyacetyl]amino]ethoxy]ethylamino]-5-oxo-pentanoyl]piperazin-1-yl]prop-1-ynyl]-2-fluoro-phenoxy]propyl]thiazole-4-carboxylic acid]	> 316 nM	63%	51%	20.9 nM	26 nM	56.9 nM		212 nM	88%	70.1%	
Cc1cc(N(C)c2nc(C(=O)O)c(CCCOc3ccc(C#CCN(C)CC(=O)NCCOCCNC(=O)COc4cccc5c4C(=O)N(C4CCC(=O)NC4=O)C5=O)cc3F)s2)nnc1Nc1nc2ccccc2s1 (stereo not shown) [Example 32, 2-[[6-(1,3-benzothiazol-2-ylamino)-5-methyl-pyridazin-3-yl]-methyl-amino]-5-[3-[4-[3-[[2-[2-[2-[[2-[2-(2,6-dioxo-3-piperidyl)-1,3-dioxo-isoindolin-4-yl]oxyacetyl]amino]ethoxy]ethylamino]-2-oxo-ethyl]-methyl-amino]prop-1-ynyl]-2-fluoro-phenoxy]propyl]thiazole-4-carboxylic acid]		83%	53%	64.2 nM		> 1000 nM		> 10000 nM			—
Cc1ncsc1-c1ccc(CNC(=O)[C@@H]2C[C@@H](O)CN2C(=O)[C@@H](NC(=O)C2(F)CC2)C(C)(C)C)c(OCC(=O)NCCCCC(=O)N2CCN(CC#Cc3ccc(OCCCc4sc(N5CCCc6c5nnc(Nc5nc7ccccc7s5)c6C)nc4C(=O)O)c(F)c3)CC2)c1 [Example 44, 2-(3-(benzo[d]thiazol-2-ylamino)-4-methyl-6,7-dihydropyrido [2,3-c]pyridazin-8(5H)-yl)-5-(3-(2-fluoro-4-(3-(4-(5-(2-(2-(((2S,4R)-1-((S)-2-(1-fluorocyclopropane-1-carboxamido)-3,3-dimethylbutanoyl)-4-hydroxypyrrolidine-2-carboxamido)methyl)-5-(4-methylthiazol-5-yl)phenoxy)acetamido)pentanoyl)piperazin-1-yl)prop-1-yn-1-yl)phenoxy)propyl)thiazole-4-carboxylic acid]							58.3%				

Second part, led by results:

DC50 (Bcl-xL; HCT116, 24 h, 9-point serial dilution)	remaining activity at 0.01 µM (Bcl-xL)	remaining activity at 0.1 µM (Bcl-xL)	IC50 (MOLT-4 cells [1])	IC50 (MOLT-4 cells [2])	IC50 (NCI-H1650)	remaining activity at 0.3 µM (endogenous BCL-xL)	SMILES	IC50 (COR-L105)	Emax (COR-L105)	Emax (NCI-H1650)	NCI-H1650 Span (Amax) (NCI-H1650)
					7.67 nM	74.5%	Cc1ncsc1-c1ccc([C@H](C)NC(=O)[C@@H]2C[C@@H](O)CN2C(=O)[C@@H](NC(=O)CCCCCC(=O)N2CCN(CC#Cc3ccc(OCCCc4sc(N5CCCc6c5nnc(Nc5nc7ccccc7s5)c6C)nc4C(=O)O)c(F)c3)CC2)C(C)(C)C)cc1 [Example 34, 2-(3-(benzo[d]thiazol-2-ylamino)-4-methyl-6,7-dihydropyrido [2,3-c]pyridazin-8(5H)-yl)-5-(3-(2-fluoro-4-(3-(4-(7-(((S)-1-((2S,4R)-4-hydroxy-2-(((S)-1-(4-(4-methylthiazol-5-yl)phenyl)ethyl)carbamoyl)pyrrolidin-1-yl)-3,3-dimethyl-1-oxobutan-2-yl)amino)-7-oxoheptanoyl)piperazin-1-yl)prop-1-yn-1-yl)phenoxy)propyl)thiazole-4-carboxylic acid]	74.2 nM	82.7%	55.4%	
					37.3 nM	> 90%	Cc1ncsc1-c1ccc([C@H](C)NC(=O)[C@@H]2C[C@@H](O)CN2C(=O)[C@@H](NC(=O)CN(C)CC(=O)N2CCN(CC#Cc3ccc(OCCCc4sc(N5CCCc6c5nnc(Nc5nc7ccccc7s5)c6C)nc4C(=O)O)c(F)c3)CC2)C(C)(C)C)cc1 [Example 36, 2-(3-(benzo[d]thiazol-2-ylamino)-4-methyl-6,7-dihydropyrido [2,3-c]pyridazin-8(5H)-yl)-5-(3-(2-fluoro-4-(3-(4-(N-(2-(((S)-1-((2S,4R)-4-hydroxy-2-(((S)-1-(4-(4-methylthiazol-5-yl)phenyl)ethyl)carbamoyl)pyrrolidin-1-yl)-3,3-dimethyl-1-oxobutan-2-yl)amino)-2-oxoethyl)-N-methylglycyl)piperazin-1-yl)prop-1-yn-1-yl)phenoxy)propyl) thiazole-4-carboxylic acid]	296 nM	94.1%	68.3%	
					39.7 nM	82.4%	Cc1ncsc1-c1ccc([C@H](C)NC(=O)[C@@H]2C[C@@H](O)CN2C(=O)[C@@H](NC(=O)CSCC(=O)N2CCN(CC#Cc3ccc(OCCCc4sc(N5CCCc6c5nnc(Nc5nc7ccccc7s5)c6C)nc4C(=O)O)c(F)c3)CC2)C(C)(C)C)cc1 [Example 37, 2-(3-(benzo[d]thiazol-2-ylamino)-4-methyl-6,7-dihydropyrido [2,3-c]pyridazin-8(5H)-yl)-5-(3-(2-fluoro-4-(3-(4-(2-((2-(((S)-1-((2S,4R)-4-hydroxy-2-(((S)-1-(4-(4-methylthiazol-5-yl)phenyl)ethyl)carbamoyl)pyrrolidin-1-yl)-3,3-dimethyl-1-oxobutan-2-yl)amino)-2-oxoethyl)thio)acetyl)piperazin-1-yl)prop-1-yn-1-yl)phenoxy)propyl)thiazole-4-carboxylic acid]	623 nM	88.5%	107%	
